The nature of data set [1]: Pharmacokinetics in subjects with moderate renal impairment vs matched controls. From the text: (§1) Data are GMRs and 90% CIs. Reference used are the matched healthy subjects for renal and hepatic impairment studies, and extensive or ultra-extensive CYP2D6 metabolizers.
Data set [2] in a line: Co-administration of paroxetine (strong CYP2D6 inhibitor) and the subject combination. The text has this: Co-administration of the SSRI paroxetine and the subject combination was studied in 29 healthy volunteers.
Another data set relates to plasma protein. As to the kind of experiment: Plasma protein binding.
Data set [3] is described as follows: Pharmacokinetics in CYP2D6 poor metabolizers vs extensive metabolizers.
Source text: Approximately 7 to 10% of Caucasians and 3 to 8% of African Americans lack the capacity to metabolize CYP2D6 substrates and are classified as poor metabolizers.
as §1

Data set [4] is described as follows: Food effect on pharmacokinetics of the subject combination. It counts as in vivo, human. To be noted: subject combination administered with food.
Data set [5] in a line: Pharmacokinetics after administration of the subject combination (steady state). To be noted: human, in vivo; for half-life: mean elimination half-life.
Where [6] appears, read: 7 subjects with moderate renal impairment (GFR 30-60 mL/min) vs 6 matched controls with normal renal function.
[7] abbreviates: patients having moderate renal impairment.
The mark [8] stands for this setting: 20 mg paroxetine concomitantly with tablet twice daily vs tablet twice daily without paroxetine.
[9] abbreviates: 3 poor metabolizers compared to extensive metabolizers.

Entries after “also recorded” stand apart in the source; their conditions may differ.

As for `COc1ccc2c(c1)[C@]13CCCC[C@@H]1[C@H](C2)N(C)CC3` [dextromethorphan], in data set [1] (setting [6]), the increase of exposure result is listed as “approximately 2 fold” and the reduction of clearance came out at 50%. In data set [1] (setting [7]), the “concentrations compared with patients with healthy renal function” value is listed as “higher” and the “increase in AUC0-2” value came to 2.21 fold. Also, in data set [2] (setting [8]), the “increase in AUC0-2” value is recorded as 2.69 fold and the “increase in Cmax” value is listed as 2.38 fold. The “change of overall exposure by paroxetine” value in data set [2] (29 healthy volunteers, paroxetine co-administered with the subject combination) is 2.5 fold. In data set [2] (concomitant use of the subject combination with a strong CYP2D6 inhibitor), the “plasma concentrations with concomitant strong CYP2D6 inhibitor” value is recorded as “increases”. In addition, the fraction unbound with plasma protein was 0.3 to 0.4. Besides, in data set [3] (setting [9]), the “increase in AUC0-12” value is on record as around 3.4 fold and the “increase in Cmax” value is on record as around 3 fold. Also, the “plasma concentrations in CYP2D6 poor metabolizers compared with non-poor metabolizers” value in data set [3] (steady state, subject combination) was “increases; also recorded: generally higher”. In data set [4], the “AUC0-2 decrease with food” value is on record as 14% and the “Cmax change with food” value is on record as “unchanged”. Besides, the time to peak (Tmax) in data set [5] is around 3 h. The half-life in data set [5] (following 8 days of administration of the subject combination in extensive metabolizers) was around 22 h. Besides, in data set [5] (subject combination), the half-life is 22 h.

As for `CC(NC(C)(C)C)C(=O)c1cccc(Cl)c1` (racemic) [bupropion], in data set [1] (human, in vivo), the “concentrations compared with patients with healthy renal function” value is “higher”, the “increase in AUC0-2” value was 1.80 fold, the increase of exposure entry is recorded as “approximately 2 fold” and the reduction of clearance is reported as 50%.

Source of the values: patent publication US11839612B1, “Compounds and combinations thereof for treating neurological and psychiatric conditions” (priority 2022, dated 2023).
